Measured values from patent US20150031740A1, “COSMETIC COMPOSITION FOR STIMULATING THE CELLULAR ANTI-AGING FUNCTIONS OF THE SKIN” (SYNTIVIA, priority 2011, published 2015).

Legend:
COL3A1 (Collagen 3) = test: Expression of extracellular matrix gene Collagen 3, RT-PCR in NHDF; assay type: cell-based, human; conditions: 10^−5 M, 24 hours, quantitative RT-PCR
Protocol: (§1) In these examples, the expression of messenger RNAs was measured via the technique of quantitative RT-PCR (reverse transcription followed by polymerase chain reaction), after in vitro incubation of the various cell types in the absence or presence of the test compounds.
(§2) This study was performed on normal human dermal fibroblasts (NHDF) or on normal human epidermal keratinocytes (NHEK), depending on the genes tested. The molecules were tested at 10^−5 M in aqueous 0.1% dimethyl sulfoxide (DMSO) solution.
(§3) The cells were cultured at a concentration of 10,000 cells per well of 96-well plates, in the presence of standard culture medium as a function of the cell type.
(§4) The compounds were then added at the test concentration, for 24 hours.
(§5) The supernatant was removed and the cells were taken up in a specific buffer for extraction of the messenger RNAs (mRNA). The mRNAs were purified and reverse-transcribed in the presence of a commercial reverse transcriptase.
(§6) The complementary DNAs (cDNA) obtained were used in a real-time quantitative PCR experiment, by means of suitable primers. The degree of expression of the mRNAs was normalized with five reference genes.
(§7) The cells used for this example are normal human fibroblasts (NHDF).
(§8) The contact with the test compounds was carried out for 24 hours. […]

COL1A11 (Collagen 1) = test: Expression of extracellular matrix gene Collagen 1, RT-PCR in NHDF; assay type: cell-based, human; conditions: 10^−5 M, 24 hours, quantitative RT-PCR
Protocol: as §1, §2, §3, §4, §5, §6, §7, §8

KRT1 (Keratin 1) = test: Expression of cell differentiation and adhesion gene KRT1, RT-PCR in NHEK; assay type: cell-based, human; conditions: 10^−5 M, 24 hours, quantitative RT-PCR
Protocol: as §1, §2, §3, §4, §5, §6
(§9) The cells used for this example are normal human keratinocytes (NHEK).
as §8

[1] = test system: HAS3 (Hyaluronan synthase 3); test: Expression of extracellular matrix gene Hyaluronan synthase 3, RT-PCR in NHDF; assay type: cell-based, human; conditions: 10^−5 M, 24 hours, quantitative RT-PCR
Protocol: as §1, §2, §3, §4, §5, §6, §7, §8

EVPL (Envoplakin) = test: Expression of cell differentiation and adhesion gene EVPL, RT-PCR in NHEK; assay type: cell-based, human; conditions: 10^−5 M, 24 hours, quantitative RT-PCR
Protocol: as §1, §2, §3, §4, §5, §6, §9, §8

Collagen 1 = test: Expression of Collagen 1 at the protein level by immunofluorescence in NHDF; assay type: cell-based, human; conditions: 10 ppm in 0.1% DMSO, 24 hours, FIG. 1
Protocol: In this example, the expression of Collagen 1 was measured at the protein level via the immunofluorescence technique, after in vitro incubation of the cells in the absence or presence of the test compounds, at a concentration of 10 ppm in aqueous 0.1% DMSO solution.
The compound in accordance with the invention of formula (IIa) and the comparative compounds Comp.1 and Comp.2, of respective formula (IV) and (V), were tested.
TGFβ was used as positive control, at a concentration of 10 ng/ml in an aqueous solution. An untreated control was also realized.
This study was performed on normal human dermal fibroblasts (NHDF).
The cells were cultured at a concentration of 4000 cells per well in 96-well plates, in the presence of standard culture medium.
The compounds were then added at the test concentration, identical for all, for 24 hours.
The supernatant was removed and the cells were prepared for the fluorescent labeling. The cells were fixed in the presence of 3.7% formaldehyde, and then permeabilized in a buffer containing 1% Triton®, and finally the cells were rinsed and incubated in the presence of an anti-Collagen1 monoclonal antibody (Abcam) for one hour 30 minutes. After washing, the cells were incubated in the presence of the secondary antibody (Alexa GAM488, Invitrogen) for 1 hour. […]
The fluorescence was then quantified using an automated microscope (ArrayScan®, Cellomics®). […]

[2] = test system: SPINK5 (Serine peptidase Kazal type 5); test: Expression of cell differentiation and adhesion gene SPINK5, RT-PCR in NHEK; assay type: cell-based, human; conditions: 10^−5 M, 24 hours, quantitative RT-PCR
Protocol: as §1, §2, §3, §4, §5, §6, §9, §8

ELN (Elastin) = test: Expression of extracellular matrix gene Elastin, RT-PCR in NHDF; assay type: cell-based, human; conditions: 10^−5 M, 24 hours, quantitative RT-PCR
Protocol: as §1, §2, §3, §4, §5, §6, §7, §8

CRNN (Cornulin) = test: Expression of cell differentiation and adhesion gene CRNN, RT-PCR in NHEK; assay type: cell-based, human; conditions: 10^−5 M, 24 hours, quantitative RT-PCR
Protocol: as §1, §2, §3, §4, §5, §6, §9, §8

SPARC (Osteonectin) = test: Expression of extracellular matrix gene SPARC, RT-PCR in NHDF; assay type: cell-based, human; conditions: 10^−5 M, 24 hours, quantitative RT-PCR
Protocol: as §1, §2, §3, §4, §5, §6, §7, §8

[3] = test system: MMP-9 (matrix metalloprotease type 9); test: Gene expression of MMP-9, quantitative RT-PCR in NHEK; assay type: cell-based; conditions: normal human keratinocytes (NHEK), 10^−5 M in 0.1% DMSO, 24 hours, mRNA by quantitative RT-PCR
Protocol: as §1, §2, §3, §4, §5, §6
The cells used for this example were normal human keratinocytes (NHEK).
The contact with the test compounds was carried out for 24 hours.

COL5A1 (Collagen 5) = test: Expression of extracellular matrix gene Collagen 5, RT-PCR in NHDF; assay type: cell-based, human; conditions: 10^−5 M, 24 hours, quantitative RT-PCR
Protocol: as §1, §2, §3, §4, §5, §6, §7, §8

EPPK1 (Epiplakin 1) = test: Expression of cell differentiation and adhesion gene EPPK1, RT-PCR in NHEK; assay type: cell-based, human; conditions: 10^−5 M, 24 hours, quantitative RT-PCR
Protocol: as §1, §2, §3, §4, §5, §6, §9, §8

sirtuin-5 = test: Expression of the gene coding for sirtuin-5, quantitative RT-PCR in NHDF; assay type: cell-based; conditions: normal human fibroblasts (NHDF), 10^−5 M in 0.1% DMSO, 24 hours, mRNA by quantitative RT-PCR
Protocol: In these examples, the expression of messenger RNAs was measured via the technique of quantitative RT-PCR (reverse transcription followed by polymerase chain reaction), after in vitro incubation of the various cell types in the absence or presence of the test compounds. This study was performed on normal human dermal fibroblasts (NHDF) or on normal human epidermal keratinocytes (NHEK), depending on the genes tested. The molecules were tested at 10^−5 M in aqueous 0.1% dimethyl sulfoxide (DMSO) solution. The cells were cultured at a concentration of 10,000 cells per well of 96-well plates, in the presence of standard culture medium as a function of the cell type. The compounds were then added at the test concentration, for 24 hours. The supernatant was removed and the cells were taken up in a specific buffer for extraction of the messenger RNAs (mRNA). The mRNAs were purified and reverse-transcribed in the presence of a commercial reverse transcriptase. The complementary DNAs (cDNA) obtained were used in a real-time quantitative PCR experiment, by means of suitable primers. The degree of expression of the mRNAs was normalized with five reference genes. The cells used for this example are normal human fibroblasts (NHDF). The contact with the test compounds was carried out for 24 hours. The results obtained, in terms of expression of sirtuin-5 (coded for by the gene of Genbank accession number: NC—000006.11) relative to the basal level (absence of compound) taken to 100%, are shown in Table 5 below.

AQP3 (Aquaporin 3) = test: Expression of cell differentiation and adhesion gene AQP3, RT-PCR in NHEK; assay type: cell-based, human; conditions: 10^−5 M, 24 hours, quantitative RT-PCR
Protocol: as §1, §2, §3, §4, §5, §6, §9, §8

LAMA5 (Laminin alpha 5) = test: Expression of extracellular matrix gene Laminin alpha 5, RT-PCR in NHDF; assay type: cell-based, human; conditions: 10^−5 M, 24 hours, quantitative RT-PCR
Protocol: as §1, §2, §3, §4, §5, §6, §7, §8

[4] = test system: TGM1 (Transglutaminase 1); test: Expression of cell differentiation and adhesion gene TGM1, RT-PCR in NHEK; assay type: cell-based, human; conditions: 10^−5 M, 24 hours, quantitative RT-PCR
Protocol: as §1, §2, §3, §4, §5, §6, §9, §8

protein Klotho (KL) = test: Expression of the gene coding for the protein Klotho (KL), quantitative RT-PCR in NHDF; assay type: cell-based; conditions: normal human fibroblasts (NHDF), 10^−5 M in 0.1% DMSO, 24 hours, mRNA by quantitative RT-PCR
Protocol: as §1, §2, §3, §4, §5, §6, §7, §8

## COc1ccc2[nH]cc(CCNC(=O)/C=C/c3ccc(O)c(O)c3)c2c1 [(IIa), (2E)-3-(3,4-Dihydroxyphenyl)-N-[2-(5-methoxy-1H-indol-3-yl)ethyl]-2-propenamide]
COL3A1 (Collagen 3)
  Gene expression relative to the basal level taken to 100%: COL3A1 (Collagen 3): 125%
COL1A11 (Collagen 1)
  Gene expression relative to the basal level taken to 100%: COL1A11 (Collagen 1): 133%
KRT1 (Keratin 1)
  Gene expression relative to the basal level taken to 100%: KRT1 (Keratin 1): 142%
[1]
  Gene expression relative to the basal level taken to 100%: HAS3 (Hyaluronan synthase 3): 144%
EVPL (Envoplakin)
  Gene expression relative to the basal level taken to 100%: EVPL (Envoplakin): 166%
Collagen 1
  Expression (production) of Collagen 1 relative to the basal level (control) taken to 100%: substantially stimulates the production of collagen 1 by the cells, as much as the positive control (TGFβ)
[2]
  Gene expression relative to the basal level taken to 100%: SPINK5 (Serine peptidase Kazal type 5): 173%
ELN (Elastin)
  Gene expression relative to the basal level taken to 100%: ELN (Elastin): 136%
CRNN (Cornulin)
  Gene expression relative to the basal level taken to 100%: CRNN (Cornulin): 261%
SPARC (Osteonectin)
  Gene expression relative to the basal level taken to 100%: SPARC (Osteonectin): 118%
[3]
  Decrease of expression of MMP-9 relative to the basal level taken to 100%: −67%
COL5A1 (Collagen 5)
  Gene expression relative to the basal level taken to 100%: COL5A1 (Collagen 5): 144%
EPPK1 (Epiplakin 1)
  Gene expression relative to the basal level taken to 100%: EPPK1 (Epiplakin 1): 177%
sirtuin-5
  Expression of sirtuin-5 relative to the basal level taken to 100%: 153%
AQP3 (Aquaporin 3)
  Gene expression relative to the basal level taken to 100%: AQP3 (Aquaporin 3): 228%
LAMA5 (Laminin alpha 5)
  Gene expression relative to the basal level taken to 100%: LAMA5 (Laminin alpha 5): 141%
[4]
  Gene expression relative to the basal level taken to 100%: TGM1 (Transglutaminase 1): 183%

## COc1ccc2[nH]cc(CCNC(=O)/C=C/c3ccc(O)cc3)c2c1 [(IIb)]
Protein Klotho (KL)
  Expression of the protein Klotho relative to the basal level taken to 100%: +144%
sirtuin-5
  Expression of sirtuin-5 relative to the basal level taken to 100%: 125%

## COc1ccc2[nH]cc(CCNC(=O)c3ccc(O)cc3O)c2c1 [(IIc)]
[3]
  Decrease of expression of MMP-9 relative to the basal level taken to 100%: −56%

## COc1cc(/C=C/C(=O)NCCc2c[nH]c3ccc(O)cc23)ccc1O [(IId)]
[3]
  Decrease of expression of MMP-9 relative to the basal level taken to 100%: −47%

## O=C(NCCc1c[nH]c2ccc(O)cc12)c1ccc(O)c(O)c1 [(IIe)]
[3]
  Decrease of expression of MMP-9 relative to the basal level taken to 100%: −81%
sirtuin-5
  Expression of sirtuin-5 relative to the basal level taken to 100%: 146%

## O=C(/C=C/c1ccc(O)c(O)c1)NCCc1c[nH]c2ccc(O)cc12 [(IIf)]
[3]
  Decrease of expression of MMP-9 relative to the basal level taken to 100%: −63%
sirtuin-5
  Expression of sirtuin-5 relative to the basal level taken to 100%: 140%

## O=C(NCCc1c[nH]c2ccccc12)c1ccc(O)cc1 [Comp.2, 4-hydroxy-N-[2-(1H-indol-3-yl)ethyl]benzamide, reference compound]
Collagen 1
  Expression (production) of Collagen 1 relative to the basal level (control) taken to 100%: do not stimulate, or only very sparingly stimulate
